Where “and” joins values, the source holds several entries; their conditions need not be identical. Equal values may be shown once.
Assays:
[1] = system: A. baumannii (ATCC 19606); test: Antimicrobial MIC, A. baumannii; assay type: cell-based, Acinetobacter baumannii; conditions: Acinetobacter baumannii, ATCC19606, A. baumannii (ATCC 19606); mean (n = 2)
Description: (§1) The susceptibility of bacterial strains S. aureus (ATCC 25,923 or 29213), E. coli (ATCC 25922), and P. aeruginosa (ATCC 27853) to antibiotics and compounds was determined according to previously reported protocols. Additional antimicrobial evaluation against MRSA (ATCC 43300), Klebsiella pneumoniae (ATCC 700603), Acinetobacter baumannii (ATCC 19606), Candida albicans (ATCC 90028), and Cryptococcus neoformans (ATCC 208821) was undertaken at the Community for Open Antimicrobial Drug Discovery at The University of Queensland (Australia) according to their standard protocols as reported previously.

[2] = system: S. aureus (ATCC 25,923 or ATCC 29213); test: Antimicrobial MIC, S. aureus; assay type: cell-based, Staphylococcus aureus; conditions: mean (n = 3)
Description: as §1

MRSA (ATCC 43300) = test: Antimicrobial MIC, MRSA; assay type: cell-based, methicillin-resistant Staphylococcus aureus; conditions: Staphylococcus aureus, MRSA (ATCC 43300); mean (n = 2); read-out: MIC MRSA
Description: as §1

human red blood cells = test: Hemolytic assay; assay type: cell-based; conditions: concentration at 10% hemolytic activity on human red blood cells; mean (n = 2)
Description: Hemolysis assays were conducted using the protocols previously reported.

C. albicans (ATCC 90028) = test: Antifungal MIC, C. albicans; assay type: cell-based; conditions: Candida albicans, ATCC90028, mean (n = 2)
Description: as §1

[3] = system: P. aeruginosa (ATCC 27853); test: Enhancement of doxycycline activity; assay type: cell-based, Pseudomonas aeruginosa; conditions: for Dox/P.a: concentration required to restore doxycycline activity (combination MIC): doxycycline fixed at 4.5 µM (2 µg/mL), P. aeruginosa (ATCC 27853); for Dox/P.a fold change: ratio between intrinsic MIC of test compound and combination MIC, doxycycline 4.5 µM, P. aeruginosa
E. coli (ATCC 25922) [4] = test: Antimicrobial MIC, E. coli; assay type: cell-based, Escherichia coli; conditions: mean (n = 2)
Description: as §1

[5] = system: C. neoformans (ATCC 208821); test: Antifungal MIC, C. neoformans; assay type: cell-based, Cryptococcus neoformans; conditions: Cryptococcus neoformans, ATCC208821, C. neoformans (ATCC 208821); mean (n = 2)
Description: as §1

[6] = system: K. pneumoniae (ATCC 700603); test: Antimicrobial MIC, K. pneumoniae; assay type: cell-based; conditions: Klebsiella pneumoniae, ATCC700603, mean (n = 2)
Description: as §1

Cytotoxicity assay = assay type: cell-based, human; conditions: human, HEK293 human embryonic kidney cells, concentration at 50% cytotoxicity on HEK293 cells; mean (n = 2)
Description: Cytotoxicity assays were conducted using the protocols previously reported.

[7] = system: P. aeruginosa (PAO1 or ATCC 27853); test: Antimicrobial MIC, P. aeruginosa; assay type: cell-based; conditions: Pseudomonas aeruginosa; P. aeruginosa (PAO1 or ATCC 27853); mean (n = 3); read-out: MIC P. a
Description: as §1

E. coli (ATCC 25922) [8] = test: Enhancement of erythromycin activity; assay type: cell-based, Escherichia coli; conditions: for Eryth/E.c: concentration required to restore erythromycin activity (combination MIC): erythromycin fixed at 10.9 µM (8 µg/mL), E. coli (ATCC 25922); for Eryth/E.c fold change: ratio between intrinsic MIC of test compound and combination MIC, erythromycin 10.9 µM, E. coli
Description: Restoring enhancer concentrations were determined using previously reported protocols.

[9] = Escherichia coli, ATCC25922, E. coli (ATCC 25922)

Row | SMILES | MIC [1] [µM] | MIC ([2]; Staphylococcus aureus) [µM] | MIC [2] [µM] | MIC (MRSA (ATCC 43300)) [µM] | MIC (C. albicans (ATCC 90028)) [µM] | Dox/P.a: concentration required to restore doxycycline activity (combination MIC) [3] | MIC (E. coli (ATCC 25922) [4]; E. coli (ATCC 25922)) [µM] | MIC (E. coli (ATCC 25922) [4]; [9]) [µM] | MIC [5] [µM] | MIC [6] [µM] | MIC [7] [µM] | Eryth/E.c: concentration required to restore erythromycin activity (combination MIC) (E. coli (ATCC 25922) [8]) | Hemolysis HC10 (human red blood cells) [µM] | Dox/P.a fold change [3] [fold] | IC50 (Cytotoxicity assay) [µM] | Eryth/E.c fold change (E. coli (ATCC 25922) [8]) [fold]
1 | O=C(NCCCNCCCCCCCNCCCNC(=O)c1ccc2ccccc2c1)c1ccc2ccccc2c1.O=C(O)C(F)(F)F.O=C(O)C(F)(F)F [Compound 19c, N^1,N^7-Bis(3-(2-naphthamido)propyl)heptane-1,7-diaminium 2,2,2-trifluoroacetate] | > 41 | 16 | – | ≤ 0.32 | > 41 | 4.0 µM and 4.00 µM | – | 16 | ≤ 0.32 | > 41 | 32 | 4.0 µM | >41.0 | 8 | 20.5 | 4
2 | O=C(NCCCNCCCCCCCCCCCCNCCCNC(=O)c1cccc2ccccc12)c1cccc2ccccc12.O=C(O)C(F)(F)F.O=C(O)C(F)(F)F [Compound 17f, N^1,N^12-Bis(3-(1-naphthamido)propyl)dodecane-1,12-diaminium 2,2,2-trifluoroacetate] | 0.29 | 25 | – | 0.29 | > 37.6 | 300 µM | – | 100 | 0.29 | > 37.6 | 300 | 50 µM | >37.6 | 1 | > 37.6 | 2
3 | O=C(CCC(=O)Nc1cccc2ccccc12)NCCCNCCCCCCCCNCCCNC(=O)CCC(=O)Nc1cccc2ccccc12.O=C(O)C(F)(F)F.O=C(O)C(F)(F)F [Compound 18d, N^1,N^8-Bis(3-(4-(naphthalen-1-ylamino)-4-oxobutanamido)propyl)octane-1,8-diaminium 2,2,2-trifluoroacetate] | > 34.2 | 107 | – | > 34.2 | > 34.2 | > 107 µM | – | > 107 | > 34.2 | > 34.2 | > 107 | 107 µM | >34.2 | 1 | > 34.2 | 1
4 | O=C(CCC(=O)Nc1ccc2ccccc2c1)NCCCNCCCCCCCCCCNCCCNC(=O)CCC(=O)Nc1ccc2ccccc2c1.O=C(O)C(F)(F)F.O=C(O)C(F)(F)F [Compound 20e, N^1,N^10-Bis(3-(4-(naphthalen-2-ylamino)-4-oxobutanamido)propyl)decane-1,10-diaminium 2,2,2-trifluoroacetate] | > 33.2 | 12.9 | – | 16.6 | > 33.2 | 104 µM | – | 104 | 16.6 | > 33.2 | 518 | 13 µM and 13.0 µM | >33.2 | 5 | > 33.2 | 8
5 | O=C(CCC(=O)Nc1ccc2ccccc2c1)NCCCNCCCCCCNCCCNC(=O)CCC(=O)Nc1ccc2ccccc2c1.O=C(O)C(F)(F)F.O=C(O)C(F)(F)F [Compound 20b, N^1,N^6-Bis(3-(4-(naphthalen-2-ylamino)-4-oxobutanamido)propyl)hexane-1,6-diaminium 2,2,2-trifluoroacetate] | > 35.2 | > 200 | – | > 35.2 | > 35.2 | 25 µM | – | 50 | 35.2 | > 35.2 | > 200 | 50 µM | >35.2 | > 8 | > 35.2 | 1
6 | O=C(NCCCNCCCCCCNCCCNC(=O)c1ccc2ccccc2c1)c1ccc2ccccc2c1.O=C(O)C(F)(F)F.O=C(O)C(F)(F)F [Compound 19b, N^1,N^6-Bis(3-(2-naphthamido)propyl)hexane-1,6-diaminium 2,2,2-trifluoroacetate] | > 41.7 | 65.2 | – | 41.7 | > 41.7 | 65.2 µM | – | 130 | 20.9 | > 41.7 | > 130 | 65.2 µM | >41.7 | > 2 | > 41.7 | 2

Now from value to molecule, other results behind:

Row | MIC [1] [µM] | MIC ([2]; Staphylococcus aureus) [µM] | MIC [2] [µM] | MIC (MRSA (ATCC 43300)) [µM] | MIC (C. albicans (ATCC 90028)) [µM] | Dox/P.a: concentration required to restore doxycycline activity (combination MIC) [3] | MIC (E. coli (ATCC 25922) [4]; E. coli (ATCC 25922)) [µM] | MIC (E. coli (ATCC 25922) [4]; [9]) [µM] | MIC [5] [µM] | MIC [6] [µM] | MIC [7] [µM] | Eryth/E.c: concentration required to restore erythromycin activity (combination MIC) (E. coli (ATCC 25922) [8]) | SMILES | Hemolysis HC10 (human red blood cells) [µM] | Dox/P.a fold change [3] [fold] | IC50 (Cytotoxicity assay) [µM] | Eryth/E.c fold change (E. coli (ATCC 25922) [8]) [fold]
7 | > 32 | 3.12 | 3.15 | ≤ 0.25 | > 32 | 50.3 µM | 12.5 | 6.3 to 12.5 | ≤ 0.25 | > 32 | > 100 | 6.29 µM | O=C(CCC(=O)Nc1cccc2ccccc12)NCCCNCCCCCCCCCCCCNCCCNC(=O)CCC(=O)Nc1cccc2ccccc12.O=C(O)C(F)(F)F.O=C(O)C(F)(F)F [Compound 18f, N^1,N^12-Bis(3-(4-(Naphthalen-1-ylamino)-4-oxobutanamido)propyl)dodecane-1,12-diaminium 2,2,2-trifluoroacetate] | >32.2 | > 2 | > 32.2 | 2
8 | > 35.2 | > 200 | – | > 35.2 | > 35.2 | 100 µM | – | > 200 | > 35.2 | > 35.2 | > 200 | 200 µM | O=C(CCC(=O)Nc1cccc2ccccc12)NCCCNCCCCCCNCCCNC(=O)CCC(=O)Nc1cccc2ccccc12.O=C(O)C(F)(F)F.O=C(O)C(F)(F)F [Compound 18b, N^1,N^6-Bis(3-(4-(naphthalen-1-ylamino)-4-oxobutanamido)propyl)hexane-1,6-diaminium 2,2,2-trifluoroacetate] | >35.2 | > 2 | > 35.2 | 1
9 | > 34.7 | 25 | – | 2.2 | > 34.7 | 6.25 µM | – | 25 | ≤ 0.27 | > 34.7 | > 200 | 12.5 µM | O=C(CCC(=O)Nc1ccc2ccccc2c1)NCCCNCCCCCCCNCCCNC(=O)CCC(=O)Nc1ccc2ccccc2c1.O=C(O)C(F)(F)F.O=C(O)C(F)(F)F [Compound 20c, N^1,N^7-Bis(3-(4-(naphthalen-2-ylamino)-4-oxobutanamido)propyl)heptane-1,7-diaminium 2,2,2-trifluoroacetate] | >34.7 | – | > 34.7 | 2
